Key:
Type in all cases: in vivo, mouse
[1] = system: C57BL/6J mice fed high fat diet; test: Intraperitoneal glucose tolerance test, high-fat diet induced model (UP394/UP396); details: day 18; times 60, 90 and 120 minutes; p<0.05; GW1929 5 mg/kg, UP396 100 mg/kg intraperitoneally
Excerpt: A high-fat diet induced animal model was developed and used for evaluation of potential therapeutic effects of chromone extracts. The C57BL/6J is a clinically relevant animal model that can be used in studies on metabolic disorders, pathophysiology of impaired glucose tolerance and for development of novel therapeutic agents (Ahren et al. (2004) Diabetes 53 (Supplement 3):S215-S219; Laakso et al. (2004) Diabetes Care 27:2253-2259; Kahn et al. (2004) Diabetes 53:3274-3285; Scheurink et al. (1998) European J Endo. 139:461-467; Yuan et al. (2002) Diabetes 51:1851-1858; Reitman et al. (2005) Endocrinology 145:3258-3264; Vlassara et al. (2005) Diabetes 54:2314-2319; Cawthome et al. (2002) Molecular and Cellular Proteomics 1:509-516). Methodology of model induction was first explained by Surwit et al. in 1988 (Diabetes, 37:1163-1167). […] Blood glucose, cholesterol, and triglyceride were monitored every week for 12 weeks as described previously. […]
An intraperitoneal glucose tolerance test was conducted using the C57BL/6J mice as described in Example 12 at a dose of 2 g/kg on day 18 of treatment with intraperitoneal administration of GW1929 (5 mg/kg), UP394 (100 mg/kg), UP396 (100 mg/kg) and vehicle. […] Blood glucose levels were measured at time 0, 30, 60, 90, and 120 minutes. […]

db/db mice = test: Weekly fasting glucose levels in db/db mice; details: GW1929 5 mg/kg, N931 375 mg/kg
Experimental: Fasting glucose levels of male db/db mice (8 mice in each group) treated with GW1929 (5 mg/kg), N931 (375 mg/kg) and vehicle were measured weekly. Animals were provided with T2018 rodent diet ad libitum except when fasting. Animals were fasted overnight before measurements were taken.

[2] = system: high fat diet induced C57BL/6J mice; test: Intraperitoneal insulin tolerance test, UP780 dose-range study; details: after 10 weeks of daily oral treatment; P≦0.05
Experimental: Once an induction of the disease on animals after 8 weeks of high fat diets was confirmed by monitoring of selected parameters, daily oral treatment was initiated. On each day, the test articles and the positive control GW1929 (Tocris Bioscience, Ellisville, Mo., Batch #2A/58705) were dissolved in 0.5% methylcellulose (Sigma, St. Louise Mo., Lot#116H0857) and delivered at an oral dose of 100, 200 and 400 mg/kg of UP780 (Lot # L1806QMAW-01); 400 mg/kg of Qmatrix® Aloe vera gel powder (QM400, Lot# G6319103-L3) as well as 5 mg/kg of GW1929. As GW1929 was not completely solublized in methylcellulose, it was first dissolved in DMSO (Sigma, St. Louis, Mo., Batch#064K0067). The final concentration of test compounds, including the vehicle, was then adjusted to contain 5% DMSO before drug administration. The carrier vehicle treated animals received 0.5% methylcellulose only. No detectable sign of irritation was observed after each drug or vehicle administration. […]
An intraperitoneal glucose tolerance test was conducted on day 0 (baseline), weeks 3, and 9 after onset of treatment. […] Blood glucose levels were determined at time 0 (before glucose injection), 30, 60, 90, and 120 minutes post glucose delivery. […] Blood glucose levels were determined at time 0 (before insulin injection), 30, 60, 90, and 120 minutes after insulin administration. […]

[3] = system: high fat diet induced C57BL/6J mice; test: Fasting triglyceride, UP780 dose-range study; details: after 7 weeks of daily oral treatment; GW1929 5 mg/kg
Experimental: Once an induction of the disease on animals after 8 weeks of high fat diets was confirmed by monitoring of selected parameters, daily oral treatment was initiated. On each day, the test articles and the positive control GW1929 (Tocris Bioscience, Ellisville, Mo., Batch #2A/58705) were dissolved in 0.5% methylcellulose (Sigma, St. Louise Mo., Lot#116H0857) and delivered at an oral dose of 100, 200 and 400 mg/kg of UP780 (Lot # L1806QMAW-01); 400 mg/kg of Qmatrix® Aloe vera gel powder (QM400, Lot# G6319103-L3) as well as 5 mg/kg of GW1929. As GW1929 was not completely solublized in methylcellulose, it was first dissolved in DMSO (Sigma, St. Louis, Mo., Batch#064K0067). The final concentration of test compounds, including the vehicle, was then adjusted to contain 5% DMSO before drug administration. The carrier vehicle treated animals received 0.5% methylcellulose only. No detectable sign of irritation was observed after each drug or vehicle administration.
As described on Example 12, male C57BL/6J mice were purchased from Jackson Laboratories (Bar Harbor, Me.) at 6 weeks of age. […]
Fasting blood glucose, total cholesterol and triglyceride levels were measured using 15-20 μl of blood obtained from tail vein. […]

CN(CCOc1ccc(C[C@H](Nc2ccccc2C(=O)c2ccccc2)C(=O)O)cc1)c1ccccn1 [GW1929, N-(2-Benzoylphenyl)-O-[2-(methyl-2-pyridinylamino)ethyl]-L-tyrosine]
glucose utilization in intraperitoneal glucose tolerance test compared to vehicle [1]: Significant glucose utilization | course of fasting glucose level during 10-week treatment (db/db mice; starting from week 5): maintain the glucose levels at the baseline level | fasting blood glucose levels compared to vehicle (db/db mice; weeks 6, 7, 9 and 10, P<0.05): significantly lower | significant differences in intraperitoneal insulin tolerance test vs vehicle [2]: after 1 hour insulin injection | percent reduction of fasting triglyceride level to vehicle [3]: 22.7%
